In experiment [1] the test system is ICa. Also on record: method as in PMID 23896226. Conditions: cited from earlier work.
Experiment [2] relates to IKs. Also on record: method as in PMID 23896226. Conditions: read-out: IC50 (IKs blocker); cited from earlier work.
Experiment [3] relates to Ito. Also on record: method as in PMID 23896226. Particulars: cited from earlier work.
Experiment [4] deals with rat engineered heart tissue (EHT). The experiment can be described thus: Video-optical analysis of contractile parameters of spontaneously beating rat EHTs (50 nM epinephrine).

The term IC50 denotes the concentration needed to halve the response being measured.

As to `CN([C@H]1c2cc(OCCCC(F)(F)F)ccc2OC(C)(C)[C@@H]1O)S(C)(=O)=O` [HMR-1556], the IC50 in experiment [1] is 27.5 µM; in experiment [2], 0.0105 µM; in experiment [3] it was 33.9 µM. Also, in experiment [4] (1–1,000 nM, even at high concentrations (1,000 nM)), the “effect on T2, drug alone” value was “Neither E-4031 nor HMR-1556 affected T2”. Also, the “concentration response curve (T2) in the presence of 4AP” value in experiment [4] (4AP 3 mM) was “shifted to the left”.

These data come from publication PMC4160570, “Effects of proarrhythmic drugs on relaxation time and beating pattern in rat engineered heart tissue” (Basic Research in Cardiology, 2014).
